# Experimental data: patent US11976083B2, “Inhibitors of peptidylarginine deiminases” (Gilead Sciences, Inc., priority 2020, dated 2024)
# Target: T1, human PAD4 (Homo sapiens, UniProt Q9UM07)
# T1 construct: human PAD4 (NM_012387), A2-P663, was PCR amplified; His-SUMO (N, cleaved yes); made in house; host or cells: E. coli BL21(DE3)
# Experiment: In vitro PAD4 BAEE biochemical assay
# Conditions: BAEE substrate 3 mM, 5 nM PAD4, 2 mM calcium chloride; geometric mean of multiple experiments
# Procedure, shortened: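 Recombinant human PAD4 (5 nM final) with 2 mM CaCl2 was preincubated with compound 30 min at 25 °C in MOPS buffer pH 7.6, then reacted with 3 mM BAEE for 2 h at 25 °C. After EDTA stop, released ammonia was detected by o-phthalaldehyde/DTT fluorescence (ex 405/em 535 nm); IC50 from four-parameter fit, geometric mean.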
# T1 sequence (Q9UM07 2-663): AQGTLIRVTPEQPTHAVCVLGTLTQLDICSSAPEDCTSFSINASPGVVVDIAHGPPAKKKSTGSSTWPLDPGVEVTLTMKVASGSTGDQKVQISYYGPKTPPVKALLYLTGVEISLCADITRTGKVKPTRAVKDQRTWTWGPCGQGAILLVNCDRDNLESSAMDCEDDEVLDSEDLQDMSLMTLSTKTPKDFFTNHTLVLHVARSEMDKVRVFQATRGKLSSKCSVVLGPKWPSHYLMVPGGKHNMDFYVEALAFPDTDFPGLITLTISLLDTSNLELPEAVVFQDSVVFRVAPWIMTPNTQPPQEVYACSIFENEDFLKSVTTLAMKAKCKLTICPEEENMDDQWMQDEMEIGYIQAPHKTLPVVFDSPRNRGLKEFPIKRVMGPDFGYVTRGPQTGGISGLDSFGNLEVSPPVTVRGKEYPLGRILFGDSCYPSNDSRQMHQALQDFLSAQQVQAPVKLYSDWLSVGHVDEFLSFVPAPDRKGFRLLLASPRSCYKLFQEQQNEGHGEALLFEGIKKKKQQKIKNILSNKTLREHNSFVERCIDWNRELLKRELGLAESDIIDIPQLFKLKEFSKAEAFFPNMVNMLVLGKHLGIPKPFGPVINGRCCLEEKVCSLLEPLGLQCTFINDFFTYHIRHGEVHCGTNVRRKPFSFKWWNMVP
row,SMILES,IC50
1,"COc1cc(C(=O)N[C@H]2CNCC[C@@H]2F)cc2nc(-c3cc4ccc5nc4n3CCCCCc3c(noc3C)C(=O)N[C@@H]5C)n(C)c12 [Example 398, 2-[(2~{R})-2,8-dimethyl-4-oxo-7-oxa-3,6,15,21-tetrazatetracyclo[13.5.2.0^{5,9}.0^{18,22}]docosa-1(21),5,8,16,18(22),19-hexaen-16-yl]-~{N}-[(3~{S},4~{S})-4-fluoro-3-piperidyl]-7-methoxy-1-methyl-benzimidazole-5-carboxamide]",74 nM
2,"COc1cc(C(=O)N[C@H]2CNCC[C@@H]2F)cc2nc(-c3cc4ccc5nc4n3CCC/C=C/c3c(noc3C)C(=O)N[C@@H]5C)n(C)c12 [Example 399, 2-[(2~{R},10~{E})-2,8-dimethyl-4-oxo-7-oxa-3,6,15,21-tetrazatetracyclo[13.5.2.0^{5,9}.0^{18,22}]docosa-1(21),5,8,10,16,18(22),19-heptaen-16-yl]-~{N}-[(3~{S},4~{S})-4-fluoro-3-piperidyl]-7-methoxy-1-methyl-benzimidazole-5-carboxamide]",86 nM
3,"COc1cc(C(=O)N[C@H]2CNCC[C@@H]2F)cc2nc(-c3cc4ccc5nc4n3CCCCCCC3(CC(F)(F)C3)C(=O)N[C@@H]5C)n(C)c12 [Example 400, 2-[(11~{R})-1′,1′-difluoro-11-methyl-9-oxo-spiro[1,10,19-triazatricyclo[10.5.2.0^{15,18}]nonadeca-12(19),13,15(18),16-tetraene-8,3′-cyclobutane]-17-yl]-~{N}-[(3~{S},4~{S})-4-fluoro-3-piperidyl]-7-methoxy-1-methyl-benzimidazole-5-carboxamide]",150 nM
4,"C[C@H]1NC(=O)c2cccnc2CCCCCn2c(-c3nc4cc(C(=O)N[C@H]5CNCC[C@@H]5F)c(F)cc4n3C)cc3ccc1nc32 [Example 401, 6-fluoro-~{N}-[(3~{S},4~{S})-4-fluoro-3-piperidyl]-1-methyl-2-[(2~{R})-2-methyl-4-oxo-3,9,16,22-tetrazatetracyclo[14.5.2.0^{5,10).0^{19,23}]tricosa-1(22),5(10),6,8,17,19(23),20-heptaen-17-yl]benzimidazole-5-carboxamide]",90 nM
5,"C[C@H]1NC(=O)C2(CCCCCCn3c(-c4nc5cc(C(=O)N[C@H]6CNCC[C@@H]6F)c(F)cc5n4C)cc4ccc1nc43)CC(F)(F)C2 [Example 402, 2-[(11~{R})-1′,1′-difluoro-11-methyl-9-oxo-spiro[1,10,19-triazatricyclo[10.5.2.0^{15,18}]nonadeca-12(19),13,15(18),16-tetraene-8,3′-cyclobutane]-17-yl]-6-fluoro-~{N}-[(3~{S},4~{S})-4-fluoro-3-piperidyl]-1-methyl-benzimidazole-5-carboxamide]",91 nM
6,"COC1(Cn2c(-c3cc4ccc5nc4n3CCCCC[C@@H]3C[C@H]3C(=O)N[C@@H]5C)nc3cc(C(=O)N[C@H]4CNCC[C@@H]4F)c(F)cc32)CC1 [Example 404, 6-fluoro-~{N}-[(3~{S},4~{S})-4-fluoro-3-piperidyl]-1-[(1-methoxycyclopropyl)methyl]-2-[(2~{R},5~{R},7~{R})-2-methyl-4-oxo-3,13,19-triazatetracyclo[11.5.2.0^{5,7}.0^{16,20}]icosa-1(19),14,16(20),17-tetraen-14-yl]benzimidazole-5-carboxamide]",83 nM
7,"C[C@H]1NC(=O)[C@@H]2C[C@H]2CCCCCn2c(-c3nc4cc(C(=O)N[C@H]5CNCC[C@@H]5F)c(F)cc4n3CC3(F)CC3)cc3ccc1nc32 [Example 405, 6-fluoro-1-[(1-fluorocyclopropyl)methyl]-~{N}-[(3~{S},4~{S})-4-fluoro-3-piperidyl]-2-[(2~{R},5~{R},7~{R})-2-methyl-4-oxo-3,13,19-triazatetracyclo[11.5.2.0^{5,7}.0^{16,20}]icosa-1(19),14,16(20),17-tetraen-14-yl]benzimidazole-5-carboxamide]",27 nM
8,"C[C@H]1NC(=O)[C@@H]2C[C@H]2CCCCCn2c(-c3nc4cc(C(=O)N[C@H]5CNCC[C@@H]5F)c(F)cc4n3CC3(C#N)CC3)cc3ccc1nc32 [Example 406, 1-[(1-cyanocyclopropyl)methyl]-6-fluoro-~{N}-[(3~{S},4~{S})-4-fluoro-3-piperidyl]-2-[(2~{R},5~{R},7~{R})-2-methyl-4-oxo-3,13,19-triazatetracyclo[11.5.2.0^{5,7}.0^{16,20}]icosa-1(19),14,16(20),17-tetraen-14-yl]benzimidazole-5-carboxamide]",22 nM
9,"COc1cc(C(=O)N2CC[C@@H](OC)[C@@H](N)C2)cc2nc(-c3cc4ccc5nc4n3CCCCCc3nc(Cl)ccc3C(=O)N[C@@H]5C)n(C)c12 [Example 407, (2~{R})-17-[5-[(3~{S},4~{R})-3-amino-4-methoxy-piperidine-1-carbonyl]-7-methoxy-1-methyl-benzimidazol-2-yl]-8-chloro-2-methyl-3,9,16,22-tetrazatetracyclo[14.5.2.0^{5,10).0^{19,23}] tricosa-1(22),5(10),6,8,17,19(23),20-heptaen-4-one]",70 nM
10,"COc1cc(C(=O)N2CCC[C@@H](N)[C@H]2CO)cc2nc(-c3cc4ccc5nc4n3CCCCC[C@@H]3C[C@H]3C(=O)N[C@@H]5C)n(C)c12 [Example 408, (2~{R},5~{R},7~{R})-14-[5-[(2~{S},3~{R})-3-amino-2-(hydroxymethyl)piperidine-1-carbonyl]-7-methoxy-1-methyl-benzimidazol-2-yl]-2-methyl-3,13,19-triazatetracyclo[11.5.2.0^{5,7}.0^{16,20}] icosa-1(19),14,16(20),17-tetraen-4-one]",255 nM
11,"COc1cc(C(=O)N2CC[C@@H](OC)[C@@H](N)C2)cc2nc(-c3cc4ccc5nc4n3CCCCCc3ncccc3C(=O)N[C@@H]5C)n(C)c12 [Example 409, (2~{R})-17-[5-[(3~{S},4~{R})-3-amino-4-methoxy-piperidine-1-carbonyl]-7-methoxy-1-methyl-benzimidazol-2-yl]-2-methyl-3,9,16,22-tetrazatetracyclo[14.5.2.0^{5,10}.0^{19,23}] tricosa-1(22),5(10),6,8,17,19(23),20-heptaen-4-one]",83 nM
12,"COC[C@@H]1[C@H](N)CCCN1C(=O)c1cc(OC)c2c(c1)nc(-c1cc3ccc4nc3n1CCCCC[C@@H]1C[C@H]1C(=O)N[C@@H]4C)n2C [Example 411, (2~{R},5~{R},7~{R})-14-[5-[(2~{S},3~{R})-3-amino-2-(methoxymethyl)piperidine-1-carbonyl]-7-methoxy-1-methyl-benzimidazol-2-yl]-2-methyl-3,13,19-triazatetracyclo[11.5.2.0^{5,7}.0^{16,20}] icosa-1(19),14,16(20),17-tetraen-4-one]",398 nM
13,"C[C@H]1NC(=O)[C@@H]2C[C@H]2CCCCCn2c(-c3nc4cc(C(=O)N[C@H]5CNCC[C@@H]5F)c(F)cc4n3[C@H]3C[C@@H]3C)cc3ccc1nc32 [Example 413, 6-fluoro-˜{N}-[(3˜{S},4˜{S})-4-fluoro-3-piperidyl]-1-[(1˜{S},2˜{S})-2-methylcyclopropyl]-2-[(2˜{R},5˜{R},7˜{R})-2-methyl-4-oxo-3,13,19-triazatetracyclo[11.5.2.0^{5,7}.0^{16,20}]icosa-1(19),14,16(20),17-tetraen-14-yl]benzimidazole-5-carboxamide]",37 nM
14,"COc1cc(C(=O)N2CC[C@@H](OC)[C@@H](N)C2)cc2nc(-c3cc4ccc5nc4n3CCCCCc3nc4ccccc4nc3C(=O)N[C@@H]5C)n(C)c12 [Example 414, (2~{R})-21-[5-[(3~{S},4~{R})-3-amino-4-methoxy-piperidine-1-carbonyl]-7-methoxy-1-methyl-benzimidazol-2-yl]-2-methyl-3,6,13,20,26-pentazapentacyclo[18.5.2.0^{5,14).0^{7, 12}.0^{23,27}]heptacosa-1(26),5(14),6,8,10,12,21,23(27),24-nonaen-4-one]",125 nM
15,"C[C@H]1NC(=O)[C@@H]2C[C@H]2CCCCCn2c(-c3nc4cc(C(=O)N[C@H]5CNCC[C@@H]5F)c(F)cc4n3[C@@H]3C[C@H]3C(F)F)cc3ccc1nc32 [Example 415, 1-[(1~{R},2~{R})-2-(difluoromethyl)cyclopropyl]-6-fluoro-~ {N}-[(3~{S},4~{S})-4-fluoro-3-piperidyl]-2-[(2~{R},5~{R},7~{R})-2-methyl-4-oxo-3,13,19-triazatetracyclo[11.5.2.0^{5,7}.0^{16,20}]icosa-1(19),14,16(20),17-tetraen-14-yl]benzimidazole-5-carboxamide]",52 nM
16,"C[C@@H]1C[C@H]1n1c(-c2cc3ccc4nc3n2CCCCC[C@@H]2C[C@H]2C(=O)N[C@@H]4C)nc2cc(C(=O)N[C@H]3CNCC[C@@H]3F)c(F)cc21 [Example 416, 6-fluoro-~{N}-[(3~{S},4~{S})-4-fluoro-3-piperidyl]-1-[(1~{R},2~{R})-2-methylcyclopropyl]-2-[(2~{R},5~{R},7~{R})-2-methyl-4-oxo-3,13,19-triazatetracyclo[11.5.2.0^{5,7}.0^{16,20}]icosa-1(19),14,16(20),17-tetraen-14-yl]benzimidazole-5-carboxamide]",34 nM
17,"COCCn1c(-c2cc3ccc4nc3n2CCCCCCC(C)(C)C(=O)N[C@@H]4C)nc2cc(C(=O)N[C@H]3CNCC[C@@H]3F)c(F)cc21 [Example 417, 6-fluoro-~{N}-[(3~{S},4~{S})-4-fluoro-3-piperidyl]-1-(2-methoxyethyl)-2-[(11~{R})-8,8,11-trimethyl-9-oxo-1,10,19-triazatricyclo[10.5.2.0^{15,18}]nonadeca-12(19),13,15(18),16-tetraen-17-yl]benzimidazole-5-carboxamide]",62 nM
18,"C[C@H]1NC(=O)C(C)(C)CCCCCCn2c(-c3nc4cc(C(=O)N[C@H]5CNCC[C@@H]5F)c(F)cc4n3CC(F)F)cc3ccc1nc32 [Example 418, 1-(2,2-difluoroethyl)-6-fluoro-~{N}-[(3~{S},4~{S})-4-fluoro-3-piperidyl]-2-[(11~{R})-8,8,11-trimethyl-9-oxo-1,10,19-triazatricyclo[10.5.2.0^{15,18}]nonadeca-12(19),13,15(18),16-tetraen-17-yl]benzimidazole-5-carboxamide]",122 nM
